This note sets out measurements from ChEMBL document CHEMBL1146870, “N-Tetrahydroquinolinyl, N-quinolinyl and N-isoquinolinyl biaryl carboxamides as antagonists of TRPV1” (Bioorg Med Chem Lett, 2006).

Molecules are shown by their SMILES.

In data set [1] the target is T1, Transient receptor potential cation channel subfamily V member 1 (Homo sapiens, UniProt Q8NER1). Briefly: Antagonist activity against human TRPV1 assessed as inhibition of capsaicin-induced calcium influx by FLIPR assay. Format: functional.
The next data set relates to Cavia porcellus. Briefly: Inhibition of Freund's complete adjuvant-induced inflammatory hyperalgesia in guinea pig at 30 mg/kg, sc. The format is functional. The settings on record: route subcutaneous.
Another data set has as its target Cytochrome P450 2C9 (Homo sapiens, UniProt P11712). Briefly: Inhibition of cytochrome P450 2C9. The format is ADME.
A further data set concerns the target Cytochrome P450 2C19 (Homo sapiens, UniProt P33261). Briefly: Inhibition of cytochrome P450 2C19. Format: ADME.
Data set [2] addresses Transient receptor potential cation channel subfamily V member 1 (Rattus norvegicus) (UniProt O35433).
Description: Antagonist activity against rat TRPV1 assessed as inhibition of capsaicin-induced calcium influx by FLIPR assay
The species named for the next data set is Homo sapiens. In words: Intrinsic clearance in human liver microsomes. The format is ADME, Microsome.
In data set [3] the target is Transient receptor potential cation channel subfamily V member 1 (Cavia porcellus) (UniProt Q6R5A3).
Description: Antagonist activity against guinea pig TRPV1 assessed as inhibition of capsaicin-induced calcium influx by FLIPR assay
The target of data set [4] is Transient receptor potential cation channel subfamily V member 1 (Rattus norvegicus, UniProt O35433). Briefly: Antagonist activity against rat TRPV1 assessed as inhibition of acid-induced calcium influx by FLIPR assay. Format: functional.
A further data set addresses Cytochrome P450 3A4 (Homo sapiens, UniProt P08684). In words: Inhibition of cytochrome P450 3A4. Format: ADME.
A further data set addresses T2, Cytochrome P450 1A2 (Homo sapiens, UniProt P05177).
T2 sequence (P05177 whole entry): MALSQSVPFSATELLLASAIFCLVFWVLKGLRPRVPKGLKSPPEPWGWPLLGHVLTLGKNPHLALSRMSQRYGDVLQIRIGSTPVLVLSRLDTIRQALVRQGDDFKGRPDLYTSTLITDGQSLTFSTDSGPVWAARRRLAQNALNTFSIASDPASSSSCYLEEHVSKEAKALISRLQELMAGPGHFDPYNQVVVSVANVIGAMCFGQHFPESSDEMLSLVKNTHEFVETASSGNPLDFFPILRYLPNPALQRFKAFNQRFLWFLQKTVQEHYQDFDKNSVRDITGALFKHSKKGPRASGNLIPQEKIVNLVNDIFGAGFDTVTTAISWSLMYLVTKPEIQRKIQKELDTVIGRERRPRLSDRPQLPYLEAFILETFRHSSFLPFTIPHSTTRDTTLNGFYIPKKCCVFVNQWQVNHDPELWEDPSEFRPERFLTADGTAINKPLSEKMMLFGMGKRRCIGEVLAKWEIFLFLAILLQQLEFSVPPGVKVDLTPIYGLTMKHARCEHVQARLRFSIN
Briefly: Inhibition of cytochrome P450 1A2. The format is ADME.

The target in data set [5] is T1, Transient receptor potential cation channel subfamily V member 1. In words: Antagonist activity against human TRPV1 assessed as inhibition of acid-induced calcium influx by FLIPR assay. Format: functional.
The target in a further data set is Cytochrome P450 2D6 (Homo sapiens, UniProt P10635). Briefly: Inhibition of cytochrome P450 2D6. The format is ADME.
Sequence of Cytochrome P450 2D6 (P10635 whole entry): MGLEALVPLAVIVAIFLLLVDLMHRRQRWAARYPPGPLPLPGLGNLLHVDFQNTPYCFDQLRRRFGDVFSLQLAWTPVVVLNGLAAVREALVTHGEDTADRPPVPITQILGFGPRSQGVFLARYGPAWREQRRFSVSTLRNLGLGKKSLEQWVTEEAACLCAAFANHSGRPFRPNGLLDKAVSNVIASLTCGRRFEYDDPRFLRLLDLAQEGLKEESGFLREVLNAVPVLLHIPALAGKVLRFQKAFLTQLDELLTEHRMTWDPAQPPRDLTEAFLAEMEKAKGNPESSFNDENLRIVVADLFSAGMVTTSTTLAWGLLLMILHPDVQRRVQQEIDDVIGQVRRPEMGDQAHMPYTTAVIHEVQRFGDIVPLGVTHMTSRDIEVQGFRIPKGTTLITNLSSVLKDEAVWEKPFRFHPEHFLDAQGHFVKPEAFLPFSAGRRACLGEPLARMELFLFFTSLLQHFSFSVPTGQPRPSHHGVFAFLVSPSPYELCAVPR

T1 sequence (Q8NER1 whole entry): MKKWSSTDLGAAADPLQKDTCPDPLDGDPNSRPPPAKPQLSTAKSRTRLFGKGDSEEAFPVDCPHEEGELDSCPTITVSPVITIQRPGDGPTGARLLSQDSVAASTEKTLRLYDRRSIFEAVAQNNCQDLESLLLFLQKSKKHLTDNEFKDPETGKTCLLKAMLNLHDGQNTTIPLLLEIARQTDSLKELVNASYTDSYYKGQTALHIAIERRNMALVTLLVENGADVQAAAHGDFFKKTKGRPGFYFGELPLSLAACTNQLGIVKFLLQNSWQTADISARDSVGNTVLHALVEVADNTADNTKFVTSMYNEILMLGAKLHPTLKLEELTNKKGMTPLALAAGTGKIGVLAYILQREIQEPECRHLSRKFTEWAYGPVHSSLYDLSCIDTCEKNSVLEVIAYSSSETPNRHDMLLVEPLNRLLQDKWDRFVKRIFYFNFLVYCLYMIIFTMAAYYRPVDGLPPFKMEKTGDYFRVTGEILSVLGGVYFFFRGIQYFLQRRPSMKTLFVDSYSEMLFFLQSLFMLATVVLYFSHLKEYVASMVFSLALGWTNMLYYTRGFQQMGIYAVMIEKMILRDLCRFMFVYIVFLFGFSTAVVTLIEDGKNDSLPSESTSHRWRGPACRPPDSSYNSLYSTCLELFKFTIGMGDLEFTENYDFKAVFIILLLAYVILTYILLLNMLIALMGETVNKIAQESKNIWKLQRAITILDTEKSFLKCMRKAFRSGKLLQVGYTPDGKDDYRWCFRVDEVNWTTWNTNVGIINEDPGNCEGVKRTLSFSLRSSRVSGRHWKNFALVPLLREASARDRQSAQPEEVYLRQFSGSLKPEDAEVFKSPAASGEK
Sequence of Cytochrome P450 2C19 (P33261 whole entry): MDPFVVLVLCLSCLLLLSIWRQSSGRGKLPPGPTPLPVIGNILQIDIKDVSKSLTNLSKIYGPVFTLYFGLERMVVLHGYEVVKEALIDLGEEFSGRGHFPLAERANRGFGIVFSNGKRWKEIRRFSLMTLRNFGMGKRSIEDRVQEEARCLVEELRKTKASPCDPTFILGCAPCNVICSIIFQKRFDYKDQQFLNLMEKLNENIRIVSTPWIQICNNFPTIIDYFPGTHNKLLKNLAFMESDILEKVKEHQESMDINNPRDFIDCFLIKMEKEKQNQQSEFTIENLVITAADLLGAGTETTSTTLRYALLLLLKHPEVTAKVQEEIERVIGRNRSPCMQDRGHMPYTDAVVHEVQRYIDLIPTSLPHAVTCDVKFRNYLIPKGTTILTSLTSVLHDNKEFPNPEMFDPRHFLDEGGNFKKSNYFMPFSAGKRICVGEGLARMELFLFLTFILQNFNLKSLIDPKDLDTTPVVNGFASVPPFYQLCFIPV
Sequence of Transient receptor potential cation channel subfamily V member 1 (Cavia porcellus) (Q6R5A3 whole entry): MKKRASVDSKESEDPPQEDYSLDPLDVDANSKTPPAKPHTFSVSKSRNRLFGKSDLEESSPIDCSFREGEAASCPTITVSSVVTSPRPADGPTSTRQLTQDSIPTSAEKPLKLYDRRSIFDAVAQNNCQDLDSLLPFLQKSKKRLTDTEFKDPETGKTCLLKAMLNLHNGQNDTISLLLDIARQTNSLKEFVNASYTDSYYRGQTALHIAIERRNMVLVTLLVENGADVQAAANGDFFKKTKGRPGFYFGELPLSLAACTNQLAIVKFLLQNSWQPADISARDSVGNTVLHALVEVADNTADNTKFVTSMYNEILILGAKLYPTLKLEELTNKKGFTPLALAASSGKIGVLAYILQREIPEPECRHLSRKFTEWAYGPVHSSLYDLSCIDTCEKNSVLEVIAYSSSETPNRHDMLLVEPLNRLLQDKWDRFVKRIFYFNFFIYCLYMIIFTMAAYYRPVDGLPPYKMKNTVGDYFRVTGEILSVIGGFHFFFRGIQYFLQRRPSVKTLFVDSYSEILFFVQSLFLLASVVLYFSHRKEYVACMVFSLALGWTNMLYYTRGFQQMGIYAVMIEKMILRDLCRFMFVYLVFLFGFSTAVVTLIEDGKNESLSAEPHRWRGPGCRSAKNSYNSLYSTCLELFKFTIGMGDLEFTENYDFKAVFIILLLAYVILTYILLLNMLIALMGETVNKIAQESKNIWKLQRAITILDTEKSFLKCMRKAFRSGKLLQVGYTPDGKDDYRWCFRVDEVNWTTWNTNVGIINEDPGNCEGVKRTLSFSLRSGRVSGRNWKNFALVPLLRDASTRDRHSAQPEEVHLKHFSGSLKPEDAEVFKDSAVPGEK
Sequence of Cytochrome P450 3A4 (P08684 whole entry): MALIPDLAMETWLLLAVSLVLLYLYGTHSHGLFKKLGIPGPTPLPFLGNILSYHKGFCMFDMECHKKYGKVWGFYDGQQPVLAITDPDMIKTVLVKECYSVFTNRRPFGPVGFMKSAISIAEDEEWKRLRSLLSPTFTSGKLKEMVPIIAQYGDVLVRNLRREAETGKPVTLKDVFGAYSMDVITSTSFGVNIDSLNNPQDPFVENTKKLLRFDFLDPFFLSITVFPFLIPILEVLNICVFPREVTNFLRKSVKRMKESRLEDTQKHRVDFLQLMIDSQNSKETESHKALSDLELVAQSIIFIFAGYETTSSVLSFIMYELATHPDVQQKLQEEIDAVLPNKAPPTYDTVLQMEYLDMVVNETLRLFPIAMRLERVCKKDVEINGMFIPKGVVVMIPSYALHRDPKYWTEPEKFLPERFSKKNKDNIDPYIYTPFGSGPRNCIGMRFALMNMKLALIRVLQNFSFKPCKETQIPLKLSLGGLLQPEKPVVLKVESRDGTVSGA
Sequence of Transient receptor potential cation channel subfamily V member 1 (Rattus norvegicus, UniProt O35433) (O35433 whole entry): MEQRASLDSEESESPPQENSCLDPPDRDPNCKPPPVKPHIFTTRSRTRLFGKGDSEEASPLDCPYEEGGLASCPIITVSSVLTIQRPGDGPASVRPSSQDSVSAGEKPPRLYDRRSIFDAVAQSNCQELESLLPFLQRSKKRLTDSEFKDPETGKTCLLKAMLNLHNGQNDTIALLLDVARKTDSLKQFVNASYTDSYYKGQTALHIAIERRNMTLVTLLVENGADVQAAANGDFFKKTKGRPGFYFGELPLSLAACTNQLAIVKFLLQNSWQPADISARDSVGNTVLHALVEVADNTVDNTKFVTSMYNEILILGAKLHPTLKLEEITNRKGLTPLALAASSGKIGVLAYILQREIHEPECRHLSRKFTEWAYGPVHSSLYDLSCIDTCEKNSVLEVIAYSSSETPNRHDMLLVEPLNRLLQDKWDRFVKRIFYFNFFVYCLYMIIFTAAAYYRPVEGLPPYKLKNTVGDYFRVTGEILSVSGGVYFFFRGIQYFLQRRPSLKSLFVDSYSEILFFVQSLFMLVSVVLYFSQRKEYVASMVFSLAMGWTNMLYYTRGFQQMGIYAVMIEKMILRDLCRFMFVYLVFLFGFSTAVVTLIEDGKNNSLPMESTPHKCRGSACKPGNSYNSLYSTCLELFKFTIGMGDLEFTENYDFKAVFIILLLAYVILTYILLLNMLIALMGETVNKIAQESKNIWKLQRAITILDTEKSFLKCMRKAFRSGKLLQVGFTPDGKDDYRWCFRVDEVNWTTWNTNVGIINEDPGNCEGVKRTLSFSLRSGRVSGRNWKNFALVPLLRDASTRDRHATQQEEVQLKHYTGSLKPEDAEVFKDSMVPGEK
Sequence of Transient receptor potential cation channel subfamily V member 1 (Rattus norvegicus) (O35433 whole entry): as above
Sequence of Cytochrome P450 2C9 (P11712 whole entry): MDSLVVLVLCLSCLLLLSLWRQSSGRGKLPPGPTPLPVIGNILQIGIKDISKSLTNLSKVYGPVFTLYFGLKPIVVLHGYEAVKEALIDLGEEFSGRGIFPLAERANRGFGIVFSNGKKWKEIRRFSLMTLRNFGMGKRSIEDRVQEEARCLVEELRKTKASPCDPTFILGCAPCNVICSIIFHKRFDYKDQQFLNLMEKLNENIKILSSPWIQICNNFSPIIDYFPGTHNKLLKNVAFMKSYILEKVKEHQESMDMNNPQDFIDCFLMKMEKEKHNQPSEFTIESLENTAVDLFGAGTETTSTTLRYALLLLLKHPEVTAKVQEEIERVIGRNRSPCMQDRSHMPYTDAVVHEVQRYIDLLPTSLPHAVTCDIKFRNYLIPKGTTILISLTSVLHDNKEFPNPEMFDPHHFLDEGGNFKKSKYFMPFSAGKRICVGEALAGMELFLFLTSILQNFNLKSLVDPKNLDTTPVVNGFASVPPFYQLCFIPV

One may read the pKb as the negative decadic logarithm of the Kb, by convention in mol/L. As for `CN1CCCc2ccc(NC(=O)c3ccccc3-c3ccccc3)cc21`, in [1], the pKb is < 6.6.

Usually inhibition in vivo stands for the change of the read-out against control, counted positive when it falls. In general, IC50 refers to the concentration that gives 50% inhibition. Turning to `O=C(Nc1ccc2cccnc2c1)c1ccc(-c2ccccc2)nc1`, in the data set on Cavia porcellus, the inhibition in vivo at 30 mg/kg worked out at 32%. Also, the IC50 at Cytochrome P450 2C9 was > 18 µM; at Cytochrome P450 2C19 it was > 18 µM; in [4] it was 0.0251 µM; against Cytochrome P450 3A4, > 18 µM; on Cytochrome P450 1A2, > 18 µM; in data set [5] it was 0.00794 µM. The IC50 at Cytochrome P450 2D6 was > 18 µM. Besides, the pKb in data set [2] and in data set [3] was 8.4 throughout. Besides, the CL in the data set listed under Homo sapiens was < 5 mL/min/g.

`CN(C)C(=O)c1ccc(-c2ccc(C(=O)Nc3ccc4c(c3)N(C)CCC4)cc2)cc1`: the pKb in data set [1] turned out to be 7.1.

As for `CN1CCCc2cccc(NC(=O)c3ccc(-c4ccccc4)cc3)c21`, the negative-log Kb (pKb) in data set [1] is < 6.3.

`CN1CCCc2ccc(NC(=O)c3ccc(-n4cccn4)cc3)cc21`: in data set [1], the pKb is 6.9.

Regarding `CN(C)CCN1CCCc2ccc(NC(=O)c3ccc(-c4ccccc4)cc3)cc21`, in [1], the pKb stood at 7.4.

For `O=C(Nc1ccc2c(c1)NCCC2)c1ccc(-c2ccccc2)cc1`, the pKb in [1] came to 7.7.

Consider `O=C(Nc1ccc2ccncc2c1)c1ccc(-c2ccccc2)cc1`, for which the pKb in data set [1] was 7.4.

`O=C(Nc1ccc2cccnc2c1)c1ccc(-c2ccccc2)cc1`: the pKb in data set [1] worked out at 9.4.

With `COCC(=O)N1CCCc2ccc(NC(=O)c3ccc(-c4ccccc4)cc3)cc21`, the pKb in data set [1] came to 7.2.

With `CN1CCCc2ccc(NC(=O)c3ccc(-c4cncnc4)cc3)cc21`, the pKb in [1] worked out at 6.9.

With `CN1CCCc2ccc(NC(=O)c3ccc(-c4ccccc4)nc3)cc21`, the CL in the data set listed under Homo sapiens was 4 mL/min/g. For the same compound, the pKb in data set [1] is 7.8.

Regarding `CN1CCCc2cc(NC(=O)c3ccc(-c4ccccc4)cc3)ccc21`, in data set [1], the pKb is 7.1.

As to `O=C(Nc1ccc2ccc(O)nc2c1)c1ccc(-c2ccccc2)cc1`, in data set [1], the negative logarithm of the Kb (pKb) was 8.5.

Regarding `CC(=O)c1cccc(-c2ccc(C(=O)Nc3ccc4c(c3)N(C)CCC4)cc2)c1`, in data set [1], the pKb was determined as 7.

Take `COCCN1CCCc2ccc(NC(=O)c3ccc(-c4ccccc4)cc3)cc21`: the pKb in data set [1] came to 7.3.

For the compound `CN1CCCc2ccc(NC(=O)c3ccc(-c4ccccc4)cc3Cl)cc21`, in data set [1], the pKb worked out at 7.1.

As for `O=C(Nc1cccc2cnccc12)c1ccc(-c2ccccc2)cc1`, in data set [1], the pKb turned out to be 7.7.

For the compound `CC(=O)N1CCCc2ccc(NC(=O)c3ccc(-c4ccccc4)cc3)cc21`, in [1], the pKb was 7.2.

On to `CN1CCCc2ccc(NC(=O)c3ccc(-c4ccccc4)s3)cc21`, for which, in data set [1], the pKb was 7.

For `CC(=O)NCCN1CCCc2ccc(NC(=O)c3ccc(-c4ccccc4)cc3)cc21`, the pKb in data set [1] was 6.9.

Regarding `COc1cc(-c2ccccc2)ccc1C(=O)Nc1ccc2c(c1)N(C)CCC2`, the pKb in data set [1] was < 6.8.

Turning to `O=C(Nc1ccc2cnccc2c1)c1ccc(-c2ccccc2)cc1`, the pKb in data set [1] is 7.7.

For the compound `CN1CCCc2c(NC(=O)c3ccc(-c4ccccc4)cc3)cccc21`, the pKb in data set [1] is < 6.5.

Turning to `CN1CCCc2ccc(NC(=O)c3ccc(-c4cccs4)cc3)cc21`, in data set [1], the pKb amounted to 7.6.

As for `O=C(Nc1cccc2cccnc12)c1ccc(-c2ccccc2)cc1`, the pKb in data set [1] is < 6.5.

As for `O=C(Nc1cccc2ncccc12)c1ccc(-c2ccccc2)cc1`, the pKb in [1] was < 6.5.

As to `CN1CCCc2ccc(NC(=O)c3ccc(-c4ccsc4)cc3)cc21`, the pKb in data set [1] stood at 7.8.

Consider `CN1CCCc2ccc(NC(=O)c3ccc(-c4ccccc4)cc3)cc21`, for which the CL in the data set filed under Homo sapiens was found to be 7 mL/min/g. Also, the pKb in data set [1] came out at 7.5.

For the compound `Cc1ccc2ccc(NC(=O)c3ccc(-c4ccccc4)cc3)cc2n1`, in data set [1], the negative-log Kb (pKb) is 8.

As to `CNS(=O)(=O)c1cccc(-c2ccc(C(=O)Nc3ccc4c(c3)N(C)CCC4)cc2)c1`, in data set [1], the pKb is 7.

As for `Cc1cc(C(=O)Nc2ccc3c(c2)N(C)CCC3)ccc1-c1ccccc1`, in data set [1], the negative-log Kb (pKb) turned out to be 7.4.

On to `O=C(Nc1ccc2ncccc2c1)c1ccc(-c2ccccc2)cc1`, for which, in data set [1], the pKb came to 6.9.

Consider `CN1CCCc2ccc(NC(=O)c3ccc(-c4cnccn4)cc3)cc21`, for which, in data set [1], the pKb is 7.1.

Take `CN1CCCc2ccc(NC(=O)c3cccc(-c4ccccc4)c3)cc21`: in data set [1], the pKb was < 6.8.

As for `CN1CCCc2ccc(NC(=O)c3cnc(-c4ccccc4)cn3)cc21`, the pKb in [1] is < 6.8.
